{"source": "patent EP2325187A1", "about": "“THE HYDROSULFATE OF PRASUGREL, ITS PHARMACEUTICAL COMBINATION AND USES THEREOF” (priority 2008, dated 2010)", "key": {"[1]": {"details": "dog, in vivo, 10 mg/kg", "excerpt": "Six healthy male beagle dogs of around 7-month-old, without statistical difference in their weights, are used in the experiments and fed normally for 2 weeks without receiving any drug. Six beagle dogs are divided randomly into prasugrel bisulfate group and prasugrel hydrochloride group, with 3 dogs in each group. Following the process disclosed in Experimental Example 1 of Chinese Patent Publication No. CN1214031A, the pharmacokinetic parameters of S-methylate in the plasma of the dogs in each group after administration are determined (the administration dosage for both groups is 10mg/kg)."}, "[2]": {"system": "rats", "assay": "Determination of the rate of hemorrhage (hyperemia, oedema, hemorrhage in the gastric mucosa)", "format": "in vivo", "procedure": "(§1) […] male SD rats weighted 200-300g are provided by the Experimental Animal Center of Lunan Pharmaceutical Group corporation and are divided randomly into 5 groups with 10 rats in each group. The animals are acclimatized for one week before experiment. The animals in the excipient group (equivalent volume of physiological saline), prasugrel maleate group (10mg/kg), prasugrel bisulfate group (10mg/kg) are administered by gastric gavage once each day for 7 days.\nAfter the rate of inhibiting aggregation is determined, the rats are sacrificed and dissected. The appearances of hyperemiam, oedema, hemorrhage in the gastric mucosa are examined with the aid of a magnifier, and the rats developed with hyperemiam, oedema, hemorrhage in the gastric mucosa are recorded into corresponding test groups as cases of hemorrhage."}, "[3]": {"system": "platelet aggregation induced by ADP", "assay": "Inhibition of platelet aggregation induced by ADP (platelet-rich plasma taken from dosed rats)", "format": "in vivo", "procedure": "as §1\n(§2) Two days after administered as above, the animals are starved over night. One hour after administered on the second day, the animals are anaesthetized by intraperitoneal injection of urethane, and then celiotomized to separate the abdominal aorta. A polyethylene cannula is inserted to collect 5 ml of blood into a test tube (in the tube is placed beforehand 0.5 ml of 3.8% sodium citrate solution, i.e. the ratio of the anticoagulant solution and blood is 1:9). The whole blood is centrifuged at 1000 rpm for 4 min. 1 ml of platelet-rich plasma (PRP) is taken. The remaining liquid is centrifuged at 3000 rpm for further 8 min. 1 ml of platelet-poor plasma (PPP) is taken. The two samples are placed separately in two plastic test tubes under a constant temperature of (37±0.1)°C. Using ADP (30 ul/tube) and collagen (30 ul/tube) as aggregation inducers, the maximum aggregation intensity is determined and the inhibition rate is calculated. Rate of inhibiting aggregation = (aggregation intensity for excipient group-aggregation intensity for experimental group)/aggregation intensity for excipient group × 100% [formula]"}, "[4]": {"system": "platelet aggregation induced by collagen", "assay": "Inhibition of platelet aggregation induced by collagen (platelet-rich plasma taken from dosed rats)", "format": "in vivo", "procedure": "as §1, §2"}, "[5]": {"details": "rats, 10mg/kg by gastric gavage, n=10 per group, gastric mucosa"}}, "data": [{"smiles": "CC(=O)Oc1cc2c(s1)CCN(C(C(=O)C1CC1)c1ccccc1F)C2", "note": "(stereo not drawn) [Prasugrel Bisulfate, 2-acetyloxy-5-(α-cycloproylcarbonyl-2-fluorobenzyl)-4,5,6,7-tetrahydrothieno[3,2-C]pyridine bisulfate]", "values": [{"measurement": "AUC", "setting": "[1]", "result": "82.3 ± 7.6", "unit": "µg·min/mL"}, {"measurement": "Cmax", "setting": "[1]", "result": "1210 ± 130", "unit": "ng/mL"}, {"measurement": "bioavailability", "setting": "[1]", "result": "better bioavailability than prasugrel hydrochloride"}, {"measurement": "rate of hemorrhage", "setting": "[2]; rat, in vivo", "result": "significantly lower than that in the prasugrel maleate group"}, {"measurement": "Cases of Hemorrhage", "setting": "[2]; [5]", "result": 1}, {"measurement": "Rate of Hemorrhage (%)", "setting": "[2]; [5]", "result": 10, "unit": "%"}, {"measurement": "ADP Aggregation Intensity (%)", "setting": "[3]; 10mg/kg by gastric gavage once each day, inducer ADP 30 ul/tube, maximum aggregation intensity", "result": "0.336±0.075", "unit": "%"}, {"measurement": "inhibition to platelet aggregation induced by ADP", "setting": "[3]; 10mg/kg, result in words", "result": "very significant inhibition"}, {"measurement": "inhibition at 10 mg/kg", "setting": "[3]; Rattus norvegicus, Platelet, po, 10mg/kg by gastric gavage once each day, inducer ADP 30 ul/tube, relative to excipient group, read-out: ADP Inhibition Rate (%)", "result": "48.5 ± 10.6", "unit": "%"}, {"measurement": "Collagen Aggregation Intensity (%)", "setting": "[4]; 10mg/kg by gastric gavage once each day, inducer collagen 30 ul/tube, maximum aggregation intensity", "result": "0.346±0.083", "unit": "%"}, {"measurement": "inhibition to platelet aggregation induced by collagen", "setting": "[4]; 10mg/kg, result in words", "result": "very significant inhibition"}, {"measurement": "inhibition at 10 mg/kg", "setting": "[4]; Rattus norvegicus, Platelet, po, 10mg/kg by gastric gavage once each day, inducer collagen 30 ul/tube, relative to excipient group, read-out: Collagen Inhibition Rate (%)", "result": "54.3 ± 13.5", "unit": "%"}]}]}
